Experimental data reported in ChEMBL document CHEMBL2074209, “Coinduction of MDR-1 multidrug-resistance and cytochrome P-450 genes in rat liver by xenobiotics” (J Natl Cancer Inst, 1988).

Target: Multidrug resistance protein 1a (Rattus norvegicus) (UniProt Q6PSM0)
Assay: TP_TRANSPORTER: Northern blot in vivo Fischer male rat
Type: functional, organism-based

Chain of Multidrug resistance protein 1a (Rattus norvegicus) (Q6PSM0 as listed by the source): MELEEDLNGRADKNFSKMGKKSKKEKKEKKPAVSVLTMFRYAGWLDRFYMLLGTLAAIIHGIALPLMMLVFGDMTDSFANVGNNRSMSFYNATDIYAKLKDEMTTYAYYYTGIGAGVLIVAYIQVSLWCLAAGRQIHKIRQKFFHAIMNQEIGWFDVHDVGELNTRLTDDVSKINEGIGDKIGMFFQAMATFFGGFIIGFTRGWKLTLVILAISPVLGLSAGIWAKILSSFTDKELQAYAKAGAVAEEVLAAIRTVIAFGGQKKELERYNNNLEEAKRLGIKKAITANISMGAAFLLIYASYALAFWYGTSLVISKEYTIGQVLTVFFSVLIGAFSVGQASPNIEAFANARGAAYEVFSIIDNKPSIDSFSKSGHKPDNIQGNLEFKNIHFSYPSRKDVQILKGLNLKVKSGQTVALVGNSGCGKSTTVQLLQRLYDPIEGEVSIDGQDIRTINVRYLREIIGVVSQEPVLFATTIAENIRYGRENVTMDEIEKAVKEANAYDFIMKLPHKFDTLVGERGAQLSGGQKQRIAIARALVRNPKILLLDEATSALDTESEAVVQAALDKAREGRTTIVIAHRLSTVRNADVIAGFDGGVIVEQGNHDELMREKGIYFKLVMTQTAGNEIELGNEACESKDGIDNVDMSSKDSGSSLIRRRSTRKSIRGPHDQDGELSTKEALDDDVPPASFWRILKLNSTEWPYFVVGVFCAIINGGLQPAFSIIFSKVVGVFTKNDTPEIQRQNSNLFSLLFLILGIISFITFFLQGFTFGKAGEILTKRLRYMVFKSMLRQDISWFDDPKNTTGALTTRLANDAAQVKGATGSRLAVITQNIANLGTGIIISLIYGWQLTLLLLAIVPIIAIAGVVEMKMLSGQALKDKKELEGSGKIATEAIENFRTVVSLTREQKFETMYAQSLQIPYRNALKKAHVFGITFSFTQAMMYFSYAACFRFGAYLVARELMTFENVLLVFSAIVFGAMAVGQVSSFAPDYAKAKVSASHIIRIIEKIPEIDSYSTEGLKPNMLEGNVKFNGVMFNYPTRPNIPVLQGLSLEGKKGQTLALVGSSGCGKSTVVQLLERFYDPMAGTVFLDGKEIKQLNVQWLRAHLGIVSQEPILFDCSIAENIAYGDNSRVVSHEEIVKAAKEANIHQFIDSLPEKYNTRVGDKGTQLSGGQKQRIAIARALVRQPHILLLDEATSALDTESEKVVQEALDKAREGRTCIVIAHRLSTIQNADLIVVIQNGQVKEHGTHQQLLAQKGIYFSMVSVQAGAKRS

SMILES	Activity
Clc1cc2c(cc1Cl)Oc1cc(Cl)c(Cl)cc1O2	inducer [+]
c1ccc2c(c1)Nc1ccccc1S2	inducer [+]
COc1cc2c(c3oc(=O)c4c(c13)CCC4=O)[C@@H]1C=CO[C@@H]1O2	inducer [+]
C/C=C/c1ccc2c(c1)OCO2	inducer [+]
CC(=O)N(O)c1ccc2c(c1)Cc1ccccc1-2	inducer [+]
